The target of one test is human RIPK1 (Homo sapiens (Human), UniProt Q13546). Kind of test: KINOMEscan binding assay, human RIPK1. The settings on record: equilibrium dissociation constant. An outline of the steps: (§1)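 Active-site competition binding: DNA-tagged kinase (T7 phage fusion from BL21-derived E. coli lysate, or HEK-293-expressed) captured on immobilized-ligand beads, with bound kinase in the eluate quantified by qPCR. Compounds ran as 11-point 3-fold dilutions, 1% DMSO, top 30,000 nM for most. Kd came from a Hill fit (slope −1).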
Sequence of human RIPK1 (Q13546 whole entry, the tested form may be a part): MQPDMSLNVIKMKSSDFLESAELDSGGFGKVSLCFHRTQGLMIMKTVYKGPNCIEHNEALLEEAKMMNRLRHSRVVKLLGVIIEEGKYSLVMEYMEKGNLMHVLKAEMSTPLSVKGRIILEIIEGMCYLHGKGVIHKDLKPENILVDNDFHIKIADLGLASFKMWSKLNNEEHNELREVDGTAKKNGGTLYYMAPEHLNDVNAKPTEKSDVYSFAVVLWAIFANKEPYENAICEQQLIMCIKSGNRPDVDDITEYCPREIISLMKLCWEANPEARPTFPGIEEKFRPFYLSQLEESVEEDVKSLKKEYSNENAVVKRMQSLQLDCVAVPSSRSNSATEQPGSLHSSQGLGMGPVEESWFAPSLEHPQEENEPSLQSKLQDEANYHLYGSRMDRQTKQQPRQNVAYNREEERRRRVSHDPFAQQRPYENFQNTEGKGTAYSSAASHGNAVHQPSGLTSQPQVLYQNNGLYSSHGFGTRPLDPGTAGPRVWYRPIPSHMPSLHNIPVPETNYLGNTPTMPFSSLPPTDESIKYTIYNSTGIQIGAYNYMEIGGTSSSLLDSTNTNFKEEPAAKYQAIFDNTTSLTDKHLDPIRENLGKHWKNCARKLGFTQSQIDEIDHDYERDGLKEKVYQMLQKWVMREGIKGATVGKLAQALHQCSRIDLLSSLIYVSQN

In a further test the target is human RIPK3 (Homo sapiens (Human), UniProt Q9Y572). Description: KINOMEscan binding assay, human RIPK3. The settings on record: equilibrium dissociation constant. The essentials:
as §1

A further test concerns U937 cells. Description: Counter screen: U937 cell viability without TSQ cocktail (off-target effect). Particulars: read-out: Off-target effect (IC50 cell-based assay). Set-up: species or system human. The essentials: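 Off-target viability counter screen: compounds titrated 36 μM down 1:3 over 10 points (0.3% DMSO) on 20,000 U937 cells/well, no TNF/Smac mimetic/Q-VD-OPh added, 48 h incubation. ATP-based CellTiter-Glo luminescence, four-parameter logistic IC50.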
A general note: A counterscreen serves to expose hits that act by an unwanted route or on another target.

Test [1] deals with Immortalised Mouse Dermal Fibroblasts (MDFs). Kind of test: Inhibition of TSI induced necroptosis in mouse dermal fibroblasts (CellTitre-Glo). The settings on record: MDF cells, TSI cocktail (TNF, Smac mimetic, IDN-6556), read-out: Inhibition of TSI-induced necroptosis (IC50 cell-based assay) in MDF. The protocol:
Cellular Assay: Screening Compounds for Inhibition of TSI Induced Necroptosis in, 384 well plate format. • Cell Line ID: Immortalised Mouse Dermal Fibroblasts (MDFs). • Cell Concentration (cells/well): Final cell density is 2200 cells per well. • Cell growth medium: DMEM medium+7.4% Fetal Bovine Serum (FBS). Cells are cultured in Corning 150 cm^2 tissue culture flasks with vented caps at 37° C./10% CO2. • Incubation: Plates were incubated for 30 minutes following addition of compounds and then 3 hours incubation with death stimuli (TSI cocktail) at 37° C./10% CO2 in a humidified incubator. • Compound concentration: 36 μM starting concentration, 1:3 dilution, 10 point • DMSO final concentration (% v/v): 0.3%. Compounds in TSI Cocktail (T: TNF; S: Smac Mimetic; I: IDN-6556) and their Final Concentrations: • rhTNF (100 ng/ml) • Compound A (500 nM)—Smac mimetic, Tetralogic and SYNthesis med chem • IDN-6556 (10 μM)—Selleckchem (S7775)
The cellular assay was carried out according to the following steps: • 1. Each well was prepared by sequential addition of: • a. 40 μL of cell suspension (5.5×10^4 cells/mL) was added to each well to provide a final cell concentration of 2,200 cells per well. • b. After 24 hours, DMSO (control; columns 1-2 and 23-24) or compound in DMSO—addition was performed using acoustic transfer of nL volumes of stock compound to give final test concentrations of 36, 12, 4, 1.3, 0.44, 0.148, 0.049, 0.016, 0.005 and 0.002 μM. All wells were backfilled with DMSO to a final total volume in the well of 100 nL. • c. Following compound/DMSO addition in step (b), Plates were incubated for 30 minutes at 37° C./10% CO2 in a humidified incubator and then 10 μL of 5×TSI cocktail (except to positive controls; columns 2 and 24) was added to each well. • 2. After 3 hours, plate was removed from the 37° C. incubator and equilibrated to room temperature for 15 minutes. • 3. 15 μL of room temperature CellTitre-Glo2™ (Promega™) was added to each well. • 4. Shook plates for 2 minutes (˜600 rpm) and incubated at room temperature for 15 minutes to allow signal to stabilise. • 5. Read luminescence readout on a plate reader.
Percent viability was calculated for each compound according to equation (2): […]
10 point titration curves were fitted with the 4 parameter logistic nonlinear regression model and the IC50 reported reflect the inflection point of the curve for curve fitting.
• Assay involving the TSI cocktail (T: TNF; S: Smac mimetic; I: IDN-6556): TSI treatment ensures that cells specifically undergo necroptotic cell death. TNF activates the TNF receptor, Smac mimetic directs the signal away from proinflammatory signaling and toward the RIPK1/RIPK3-mediated cell death pathways, and IDN-6556 (Caspase inhibitor) ensures that the apoptotic response is blocked leaving only the programmed necrosis response. The compounds' activity (solution in DMSO) tested in this TSI-induced assay was evaluated by determining the number of viable cells in culture by measuring the amount of ATP present as measured by CelltiterGlo.

Test [2] concerns U937 human histiocytic leukemia cell line. Kind of test: Inhibition of TSQ induced necroptosis in U937 cells (CellTitre-Glo). Particulars: 48 hours, read-out: Inhibition of TSQ-induced necroptosis (IC50 cell-based assay). An outline of the steps: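 Necroptosis was induced with TNF-Fc (100 ng/ml), Smac mimetic (500 nM) and Q-VD-OPh (10 μM) in 20000 U937 cells/well exposed to a 10-point, 3-fold compound series (top 36 μM, 0.3% DMSO). ATP luminescence read after 48 h; 4-parameter fit gave IC50. Parallel TSQ-free wells assessed compound toxicity.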

The next test addresses human MLKL (full length) (Homo sapiens (Human), UniProt Q8NB16). Description: KINOMEscan binding assay, human MLKL (full length). Particulars: equilibrium dissociation constant. An outline of the steps:
as §1

In the next test the target is mouse MLKL (full length) (Mus musculus (Mouse), UniProt Q9D2Y4). Kind of test: KINOMEscan binding assay, mouse MLKL (full length). The settings on record: equilibrium dissociation constant. As to the method:
Binding affinity of the test compounds for human MLKL (full length), mouse MLKL (full length), human RIPK1 and human RIPK3 was determined using the KINOMEscan™ technology developed by DiscoverX (USA; http://www.discoverx.com). The assay was conducted according to manufacturer instructions.
Kinase assays. For most assays, kinase-tagged T7 phage strains were grown in parallel in 24-well blocks in an E. coli host derived from the BL21 strain. E. coli were grown to log-phase and infected with T7 phage from a frozen stock (multiplicity of infection=0.4) and incubated with shaking at 32° C. until lysis (90-150 minutes). The lysates were centrifuged (6,000×g) and filtered (0.2 μm) to remove cell debris. The remaining kinases were produced in HEK-293 cells and subsequently tagged with DNA for qPCR detection. […] The liganded beads were blocked with excess biotin and washed with blocking buffer (SeaBlock (Pierce), 1% BSA, 0.05% Tween 20, 1 mM DTT) to remove unbound ligand and to reduce non-specific phage binding. […] All reactions were performed in polypropylene 384-well plates in a final volume of 20 μL. […] The kinase concentration in the eluates was measured by qPCR.
An 11-point 3-fold serial dilution of each test compound was prepared in 100% DMSO at 100× final test concentration and subsequently diluted to 1× in the assay (final DMSO concentration=1%). Most Kos were determined using a compound top concentration=30,000 nM.
KD for each test compound was calculated with a standard dose-response curve using the Hill equation (equation (1)): […]
The Hill Slope was set to −1.
Curves were fitted using a non-linear least square fit with the Levenberg-Marquardt algorithm.

The mark [3] stands for this setting: TSQ cocktail (TNF, Smac mimetic, Q-VD-OPh).
Where [4] appears, read: Homo sapiens, U-937, compound without TSQ cocktail.
Setting [5] is: Homo sapiens, U-937, TSQ cocktail (TNF, Smac mimetic, Q-VD-OPh).

Where two headings read alike, the source gives them in different places. A value given as a limit tells only on which side of the number the result lay.

Sequence of human RIPK3 (Q9Y572 whole entry): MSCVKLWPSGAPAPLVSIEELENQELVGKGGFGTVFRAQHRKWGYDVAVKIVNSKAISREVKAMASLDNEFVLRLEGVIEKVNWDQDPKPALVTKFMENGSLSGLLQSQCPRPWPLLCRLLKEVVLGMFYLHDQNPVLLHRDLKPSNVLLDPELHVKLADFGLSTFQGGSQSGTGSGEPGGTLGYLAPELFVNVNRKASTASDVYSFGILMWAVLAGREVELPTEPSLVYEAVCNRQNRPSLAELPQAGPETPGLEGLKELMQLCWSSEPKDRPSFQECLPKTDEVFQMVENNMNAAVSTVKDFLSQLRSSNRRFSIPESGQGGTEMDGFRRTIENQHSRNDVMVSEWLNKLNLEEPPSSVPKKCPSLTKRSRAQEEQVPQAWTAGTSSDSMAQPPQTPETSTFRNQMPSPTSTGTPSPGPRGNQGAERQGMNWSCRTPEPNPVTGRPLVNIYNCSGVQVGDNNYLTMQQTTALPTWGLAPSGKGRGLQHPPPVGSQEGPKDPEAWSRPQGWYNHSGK
Sequence of human MLKL (full length) (Q8NB16 whole entry): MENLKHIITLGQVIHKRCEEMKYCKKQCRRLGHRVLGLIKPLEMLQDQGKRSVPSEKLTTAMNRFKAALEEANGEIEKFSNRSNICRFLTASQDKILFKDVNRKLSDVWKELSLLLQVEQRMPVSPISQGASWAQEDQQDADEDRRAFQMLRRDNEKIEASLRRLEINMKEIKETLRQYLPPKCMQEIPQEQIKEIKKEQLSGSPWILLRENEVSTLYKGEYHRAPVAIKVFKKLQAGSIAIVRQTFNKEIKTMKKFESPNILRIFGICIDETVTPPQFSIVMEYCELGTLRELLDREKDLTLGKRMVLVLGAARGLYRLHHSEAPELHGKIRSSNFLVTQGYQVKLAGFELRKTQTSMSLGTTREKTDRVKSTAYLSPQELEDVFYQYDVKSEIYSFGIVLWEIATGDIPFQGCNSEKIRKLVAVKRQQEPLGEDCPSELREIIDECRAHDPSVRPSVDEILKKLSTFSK
Sequence of mouse MLKL (full length) (Q9D2Y4 whole entry): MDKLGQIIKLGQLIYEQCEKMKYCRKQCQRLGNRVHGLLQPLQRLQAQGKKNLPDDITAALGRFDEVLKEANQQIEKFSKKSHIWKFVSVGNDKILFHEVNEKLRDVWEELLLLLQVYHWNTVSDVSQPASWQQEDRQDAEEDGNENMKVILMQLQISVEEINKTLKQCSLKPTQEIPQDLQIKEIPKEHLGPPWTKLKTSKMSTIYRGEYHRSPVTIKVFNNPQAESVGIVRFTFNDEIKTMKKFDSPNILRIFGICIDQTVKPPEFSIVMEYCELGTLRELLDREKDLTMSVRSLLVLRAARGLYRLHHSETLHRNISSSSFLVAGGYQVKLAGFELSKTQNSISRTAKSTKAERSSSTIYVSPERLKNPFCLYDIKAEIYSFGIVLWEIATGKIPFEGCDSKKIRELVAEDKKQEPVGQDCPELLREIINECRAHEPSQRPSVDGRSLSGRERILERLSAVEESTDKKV

As to `C[C@H](Oc1cc(-c2nn(C)c3c(-c4cnn(C5CCN(C)C(C)(C)C5)c4)cnc(N)c23)ccc1NS(=O)(=O)C(F)F)c1ccc(F)cc1` (single isomer, unassigned) [Compound 155, N-(4-(4-amino-1-methyl-7-(1-((S*)-1,2,2-trimethylpiperidin-4-yl)-1H-pyrazol-4-yl)-1H-pyrazolo[4,3-c]pyridin-3-yl)-2-((S)-1-(4-fluorophenyl)ethoxy)phenyl)-1,1-difluoromethanesulfonamide], the Kd at human RIPK1 was over 10 µM; at human RIPK3, over 10 µM; on human MLKL (full length) it was 0.001 to 0.1 µM. In addition, the IC50 with U937 cells (compound without TSQ cocktail) is over 10 µM; in test [1] (3 hours), 0.1 to 1 µM; in test [2] (setting [3]), under 0.01 µM.
`C[C@H](Oc1cc(-c2nn(C)c3c(-c4cnn(C5CCN(C)C6(CC6)C5)c4)cnc(N)c23)ccc1NS(=O)(=O)C(F)F)c1ccc(F)cc1` (single isomer, unassigned) [Compound 171, N-(4-(4-amino-1-methyl-7-(1-((R*)-4-methyl-4-azaspiro[2.5]octan-7-yl)-1H-pyrazol-4-yl)-1H-pyrazolo[4,3-c]pyridin-3-yl)-2-((S)-1-(4-fluorophenyl)ethoxy)phenyl)-1,1-difluoromethanesulfonamide]: the Kd at human RIPK1 is over 10 µM; on human RIPK3, over 10 µM; on human MLKL (full length), 0.001 to 0.1 µM. Moreover, the IC50 was over 10 µM with U937 cells (compound without TSQ cocktail), under 0.1 µM in test [1] (3 hours) and 0.01 to 1 µM in test [2] (setting [3]).
With `Nc1ncc(-c2cnn(C3CCOCC3)c2)c2occ(-c3ccc(NS(=O)(=O)C(F)F)c(OCc4ccc(F)cc4)c3)c12` [Compound 5, N-(4-(4-amino-7-(1-(tetrahydro-2H-pyran-4-yl)-1H-pyrazol-4-yl)furo[3,2-c]pyridin-3-yl)-2-((4-fluorobenzyl)oxy)phenyl)-1,1-difluoromethanesulfonamide], the Kd on mouse MLKL (full length) was under 0.001 µM; on human RIPK1, over 10 µM; at human RIPK3, over 10 µM; on human MLKL (full length), under 0.001 µM.
Take `C[C@H](Oc1cc(-c2coc3c(-c4cnn(C)c4)cnc(N)c23)ccc1NS(=O)(=O)C(F)F)c1ccc(F)cc1` [Compound 8, (S)-N-(4-(4-amino-7-(1-methyl-1H-pyrazol-4-yl)furo[3,2-c]pyridin-3-yl)-2-(1-(4-fluorophenyl)ethoxy)phenyl)-1,1-difluoromethanesulfonamide]: the Kd at mouse MLKL (full length) is under 0.001 µM; at human RIPK1, over 10 µM; on human RIPK3, over 10 µM; on human MLKL (full length), under 0.001 µM.
On to `C[C@H](Oc1cc(-c2nn(C)c3c(-c4cnn(C5CCOCC5)c4)cnc(N)c23)ccc1NS(=O)(=O)C(F)F)c1ccc(Cl)cc1` [Compound 137, (S)-N-(4-(4-amino-1-methyl-7-(1-(tetrahydro-2H-pyran-4-yl)-1H-pyrazol-4-yl)-1H-pyrazolo[4,3-c]pyridin-3-yl)-2-(1-(4-chlorophenyl)ethoxy)phenyl)-1,1-difluoromethanesulfonamide], for which the IC50 in the test with U937 cells (setting [4]) was over 10 µM; in test [1] (Mus musculus, Fibroblast, 3 h) it was 1 to 10 µM; in test [2] (setting [5]) it was under 0.01 µM.
On the same counts, the results for `C[C@H](Oc1cc(-c2nn(C)c3c(-c4cnn(C5CCNC(C(F)(F)F)C5)c4)cnc(N)c23)ccc1NS(=O)(=O)C(F)F)c1ccc(F)cc1` (stereo partly drawn) [Compound 149, N-(4-(4-amino-1-methyl-7-(1-(2-(trifluoromethyl)piperidin-4-yl)-1H-pyrazol-4-yl)-1H-pyrazolo[4,3-c]pyridin-3-yl)-2-((S)-1-(4-fluorophenyl)ethoxy)phenyl)-1,1-difluoromethanesulfonamide] are over 10 µM, 0.1 to 1 µM and under 0.01 µM.
Regarding `[2H]C([2H])([2H])N1CCC(n2cc(-c3cnc(N)c4c(-c5ccc(NS(=O)(=O)C(F)F)c(O[C@@H](C)c6ccc(F)cc6)c5)nn(C)c34)cn2)CC1(C)C` (stereo partly drawn) [Compound 152, N-(4-(4-amino-7-(1-(2,2-dimethyl-1-(methyl-d3)piperidin-4-yl)-1H-pyrazol-4-yl)-1-methyl-1H-pyrazolo[4,3-c]pyridin-3-yl)-2-((S)-1-(4-fluorophenyl)ethoxy)phenyl)-1,1-difluoromethanesulfonamide], the IC50 in the test with U937 cells (setting [4]) was over 10 µM; in test [1] (Mus musculus, Fibroblast, 3 h) it was 0.1 to 1 µM; in test [2] (setting [5]), under 0.01 µM.
Consider `C[C@H](Oc1cc(-c2nn(C)c3c(-c4cnn(C5CCN(C)C(C(F)F)C5)c4)cnc(N)c23)ccc1NS(=O)(=O)C(F)F)c1ccc(F)cc1` (stereo partly drawn) [Compound 158, N-(4-(4-amino-7-(1-(2-(difluoromethyl)-1-methylpiperidin-4-yl)-1H-pyrazol-4-yl)-1-methyl-1H-pyrazolo[4,3-c]pyridin-3-yl)-2-((S)-1-(4-fluorophenyl)ethoxy)phenyl)-1,1-difluoromethanesulfonamide], for which the IC50 in the test with U937 cells (setting [4]) is over 10 µM; in test [1] (Mus musculus, Fibroblast, 3 h) it was under 0.1 µM; in test [2] (setting [5]), under 0.01 µM. The compound also gave a Kd at human MLKL (full length) of 0.001 to 0.1 µM.
As to `C[C@H](Oc1cc(-c2nn(C)c3c(-c4cnn(C5CCC(N(C)C)C5)c4)cnc(N)c23)ccc1NS(=O)(=O)C(F)F)c1ccc(F)cc1` (stereo partly drawn) [Compound 168, N-(4-(4-amino-7-(1-(3-(dimethylamino)cyclopentyl)-1H-pyrazol-4-yl)-1-methyl-1H-pyrazolo[4,3-c]pyridin-3-yl)-2-((S)-1-(4-fluorophenyl)ethoxy)phenyl)-1,1-difluoromethanesulfonamide], the IC50 with U937 cells (setting [4]) was over 10 µM; in test [1] (Mus musculus, Fibroblast, 3 h) it was 0.1 to 1 µM; in test [2] (setting [5]) it was 0.01 to 1 µM.

The Kd is a measure of binding affinity in units of concentration. A lower Kd goes with higher affinity. The term IC50 denotes the point on the concentration scale where inhibition reaches its midpoint.
